The source of these data is patent US20100087458A1, “METHOD OF TREATING MELANOMA” (Myriad Pharmaceuticals, Inc., priority 2007, published 2010).

Molecules are shown by their SMILES. “Also recorded” adds a separate entry of the source. Structures can show the parent of a compound that is named as a salt.

This series has as its system Subjects with refractory solid tumors. In words: Phase I clinical trial, open-label, dose-escalating, multiple-dose, weekly intravenous administration (safety, tolerability). The format is in vivo. Conditions: human subjects. Here is the method: An open-label, dose-escalating, multiple-dose study to define the safety, tolerability and phamacokinetics of weekly intravenous administration of (4-Methoxy-phenyl)-methyl-(2-methyl-quinazolin-4-yl)-amine hydrochloride was performed. A dosing schedule (each 4 week cycle) was performed for (4-Methoxy-phenyl)-methyl-(2-methyl-quinazolin-4-yl)-amine hydrochloride weekly for 3 weeks with no infusion on the fourth week of each cycle. Subjects with refractory solid tumors were enrolled in cohorts of 3. During Cycle 1, subjects were hospitalized during each infusion of (4-Methoxy-phenyl)-methyl-(2-methyl-quinazolin-4-yl)-amine hydrochloride and remained for observation and safety evaluation for approximately 24 hours following the end of the infusion. All subject had continuous telemetry for 2 hours prior to infusion, for 1-2 hour infusion and for 3 hours after the end of the infusion. Any clinically significant electrocardiographic (ECG) wave form abnormality was recorded and prolongation of the monitoring period extended at the discretion of the principal investigator.
Electrocardiograms were obtained prior to starting the infusion and within 30 minutes of the end of infusion for each infusion of the first cycle. Electrocardiograms on Day 1 were obtained in triplicate 5 minutes apart.
Neurocognitive assessments were made by administration of the Mini-Mental State Examination (MMSE), the Hopkins Verbal Learning and timed Grooved Pegboard tests before administration of the intravenous infusion and approximately 24 hours of the infusion at each weekly administration of the first cycle.
On days 1, 8, and 15 of each cycle, vital signs were obtained prior to the first dose, at 15, 30, and 60 minutes after the initiation of the infusion, and at 0.5, 1, 1.5, 2, and 4 hours after the end of the intravenous infusion. Vital signs at all time points beyond the start of the intravenous infusion included heart rate, blood pressure and respirations. Temperature was measured at the end of the infusion and 4 hours later.
Individual subjects were allowed to continue on repeated weekly ×3 administrations every 28 days with no dose increase provided there was no unacceptable toxicity or disease progression.
Tumor response was evaluated by response evaluation criteria in solid tumors (RECIST) criteria. To prevent sever hypersensitivity reactions due to Cremophor® EL, subjects were premedicated with oral dexamethasone (20 mg) administered approximately 12 and 6 hours before the intravenous infusion with (4-Methoxy-phenyl)-methyl-(2-methyl-quinazolin-4-yl)-amine hydrochloride, diphenhydramine (50 mg) or its equivalent administered intravenously 30-60 minutes before (4-Methoxy-phenyl)-methyl-(2-methyl-quinazolin-4-yl)-amine hydrochloride, and cimetidine (300 mg) or ranitidine (50 mg) administered intravenously 30-60 minutes before (4-Methoxy-phenyl)-methyl-(2-methyl-quinazolin-4-yl)-amine hydrochloride.

Where [1] appears, read: weekly i.v. infusion for 3 of 4 weeks, 0.3-3.3 mg/m^2.
Setting [2] is: weekly i.v. infusion, 0.3-3.3 mg/m^2.

As to `COc1ccc(N(C)c2nc(C)nc3ccccc23)cc1` [(4-Methoxy-phenyl)-methyl-(2-methyl-quinazolin-4-yl)-amine hydrochloride], the “effects on cardiac conduction (PR, QRS or QTc)” value (ECG before and within 30 minutes of end of infusion, 0.3-3.3 mg/m^2) is “no significant effects on cardiac conduction”. Moreover, under “weekly i.v. administration, various dosages, hydrochloride”, the “overall safety and tolerability” value was “safe and well tolerated in human subjects at various dosages; also recorded: safe and tolerable”. Besides, under setting [1], the dose limiting toxicity result is “vascular in nature, manifested by an acute coronary syndrome”; the intratumor bleeding result is “incidences of intratumor bleeding”; the peripheral cytotoxicity result is “no evidence of cytotoxity peripherally at the administered doses”. In addition, under setting [2], the bradycardia entry is on record as “occasional episodes of bradycardia” and the systolic blood pressure result is “dose-related increase in systolic blood pressure”.
